# Data reported in US20120077804A1, “Small Molecule Inhibitors of RNA Silencing” (The Regents of the University of California, priority 2007, published 2012).
# Columns and labels:
# [1] = tested on: RNAi-mediated innate immunity against virus infection in cultured Drosophila cells; assay: Cell-based high throughput screen, GFP expression in R1gfp cells after induction of FHV replication
# Description: A cell-based high throughput screening protocol for the identification of chemical inhibitors of the RNAi-mediated innate immunity against virus infection in cultured Drosophila cells has been established. The system is based on Flock house virus (FHV), an animal Nodavirus that contains a bipartite RNA genome. FHV RNA2 encodes the single virion structural protein, whereas FHV RNA1 encodes the viral RNA-dependent RNA polymerase (RdRP) and B2, a viral suppressor of RNAi (VSR) expressed after RNA1 replication from its own mRNA, RNA3. In the absence of RNA2, RNA1 replicates autonomously, accumulates to high levels, and produces abundant RNA3 in Drosophila cells. […] Similarly, green fluorescence is not detectable in wild type Drosophila cells transfected with pR1gfp, which encodes a recombinant RNA1 in which the viral B2 gene is replaced with green fluorescent protein (GFP) gene. A stable Drosophila Schneider 2 cell line has been established, and carries pR1gfp, called line R1gfp. R1gfp cells were seeded in 96-well plates and incubated overnight with chemicals from ChemBridge Diverset Library before FHV replication was induced. Expression of GFP was screened in R1gfp cells two days following the induction of FHV replication (see, Li et al., Proc Natl Acad Sci USA 2004, 101(5), 1350-5).
# [2] = tested on: RNAi induced by synthetic double-stranded RNA (dsRNA); assay: Northern blot of Cyclin A mRNA in S2 cells, RNAi induced by synthetic dsRNA (dsCycA); assay type: cell-based, Drosophila; details: for Degradation of cyclin A mRNA targeted by dsCycA: dsCycA plus 30 μM compound
# Description: FIG. 2 illustrates the northern blot detection of Cyclin A mRNA in S2 cells.
# Degradation of cyclin A mRNA occurred in S2 cells transfected with a dsRNA specific to cyclin A (dsCycA) (see, FIG. 2, lanes 1-2), but not in cells treated with a GFP-specific dsRNA (dsGFP) (see, FIG. 2, lane 8). […] Similar inhibition of cyclin A RNAi was also observed in cells co-transfected with a dsRNA targeting mRNA of Drosophila Ago2 (see, FIG. 2, lane 9), which is essential for RNAi in Drosophila.
compound,measurement,setting,value
"COc1ccc(CN2CCN(S(=O)(=O)c3ccc(C)cc3)CC2)cc1OCc1ccccc1 [Rin2, 1-[3-(benzyloxy)-4-methoxybenzyl]-4-[(4-methylphenyl)sulfony]piperazine]",Inhibition of RNAi-mediated viral immunity (detection of green fluorescence),[1],inhibit the RNAi-mediated viral immunity
same,Inhibition of RNAi induced by synthetic double-stranded RNA (dsRNA),[2],active inhibitors
same,Degradation of cyclin A mRNA targeted by dsCycA,[2],partially inhibited
"CCN(CC)c1ccc(/C=C2/C(=O)NN(c3ccc(C)c(Cl)c3)C2=O)c(O)c1 [Rin3, 1-(3-chloro-4-methylphenyl)-4-[4-(diethylamino)-2-hydroxybenzylidene]-3,5-pyrazolidinedione]",Inhibition of RNAi-mediated viral immunity (detection of green fluorescence),[1],inhibit the RNAi-mediated viral immunity
same,Inhibition of RNAi induced by synthetic double-stranded RNA (dsRNA),[2],active inhibitors
same,Degradation of cyclin A mRNA targeted by dsCycA,[2],partially inhibited
